Reference: US20230255975A1, “METHODS FOR TREATING CANCER WITH COMBINATION THERAPIES” (Celgene Corporation, priority 2020, published 2023)

Key:
K12PE cell line = assay: Proliferation assay; assay type: cell-based; settings: for Synergy analysis (Calcusyn) of combination with JQ1 on proliferation: K12PE cells, in combination with JQ1
Procedure: (§1) Proliferation and viability assays: Cell growth curves were determined by monitoring the viability of cells with Trypan blue exclusion on a Vi-Cell-XR (Becton Dickinson, Franklin Lakes, N.J., USA). Proliferation assays were performed in triplicate at least three times (n=3) using (3H)-thymidine incorporation. All data were plotted and analyzed using GraphPad Prism 7 (GraphPad Software, La Jolla, Calif., USA) software, represented as the mean with an error determined as ±s.d.
as §1, with “assay.” for “assays:”, “Cell lines” for “Proliferation assays”, “plated” for “performed”, “in 96-well round-bottom plates with the indicated drug concentrations or knockdown cells. […]” for “at least three times (n=3) using (3H)-thymidine incorporation.”

AMO1-PR cells = assay: Apoptosis by Annexin V and Topro staining; assay type: cell-based
Procedure: (§2) Flow cytometry: Annexin-V Alexa Fluor 488-conjugated antibody (Thermo Scientific, Waltham, Mass., USA) and To-Pro-3 (Thermo Scientific, Waltham, Mass., USA) were used according to the manufacturer's protocol and processed using Flow Jo software for at least three independent experiments. For cell cycle analysis, cells were stained with Propidium Iodide (PI) staining kit (Abcam, Cambridge, Mass., USA) and analysis was performed on Flow Jo V10 software. Staining of mitotic marker pHH3-Ser^10 was also performed by pHH3-Ser^10 and PI dual staining.
(§3) The PLK1 inhibitor BI2536 and Compound 5 were tested for their activity as individual agents and in combination in AMO1 parental and AMO1-PR cell lines. […] Changes in apoptosis were analyzed using the single agent treatments and their combination using Annexin V and Topro staining. […] Changes in Ikaros and pro-survival signaling in these cell lines was analyzed in response to BI2536 and Compound 5 after 24 and 72 hours of treatment (FIG. 5K).

AMO1 cells = assay: Apoptosis by Annexin V and Topro staining; assay type: cell-based; settings: AMO-1 cells
Procedure: as §2, §3

[1] = system: AMO1-PR (pomalidomide resistant) cell line; assay: Proliferation assay; assay type: cell-based; settings: for Synergy with trametinib on proliferation: in combination with trametinib
Procedure: as §1
as §1, with “assay.” for “assays:”, “Cell lines” for “Proliferation assays”, “plated” for “performed”, “in 96-well round-bottom plates with the indicated drug concentrations or knockdown cells. […]” for “at least three times (n=3) using (3H)-thymidine incorporation.”

K12PE-PR cell line = assay: Proliferation assay; assay type: cell-based; settings: Pom resistant K12PE-PR; in combination with JQ1
Procedure: as §1
as §1, with “assay.” for “assays:”, “Cell lines” for “Proliferation assays”, “plated” for “performed”, “in 96-well round-bottom plates with the indicated drug concentrations or knockdown cells. […]” for “at least three times (n=3) using (3H)-thymidine incorporation.”

AMO1 cell line = assay: Proliferation assay; assay type: cell-based; settings: AMO1; for Synergy with trametinib on proliferation: in combination with trametinib
Procedure: as §1
as §1, with “assay.” for “assays:”, “Cell lines” for “Proliferation assays”, “plated” for “performed”, “in 96-well round-bottom plates with the indicated drug concentrations or knockdown cells. […]” for “at least three times (n=3) using (3H)-thymidine incorporation.”

AMO1 control shRNA cells = assay: Proliferation assay in control shRNA cells; assay type: cell-based; settings: Homo sapiens, AMO1, read-out: IC50, proliferation
Procedure: (§4) Proliferation and viability assay. Cell growth curves were determined by monitoring the viability of cells with Trypan blue exclusion on a Vi-Cell-XR (Becton Dickinson, Franklin Lakes, N.J., USA). Cell lines were plated in triplicate in 96-well round-bottom plates with the indicated drug concentrations or knockdown cells. Proliferation assays were performed in triplicate at least three times (n=3) using either the WST-1 tetrazolium salt (Roche Applied Science) reagent used according to the manufacturer's specifications or by (3H)-thymidine incorporation as previously described (Bjorklund et al., Blood Cancer Journal 5, e354, 2015). All data were plotted and analyzed using GraphPad Prism 7 (GraphPad Software, La Jolla, Calif., USA) software, represented as the mean with an error determined as ±s.d.
(§5) To further confirm the synergistic effect, shRNA knockdown was combined with either Compound 5 or Compound 6 treatment. Expression of control and NEK2 shRNA in AMO1 cell lines was induced, followed by exposure of the cells to increasing concentrations of Compound 5 and Compound 6. The results were measured through a proliferation assay.

[2] = system: AMO1 NEK2 shRNA (NEK2 knocked-down) cells; assay: Proliferation assay in NEK2 knocked-down cells; assay type: cell-based
Procedure: as §4, §5

DF15/PR cell line = assay: Proliferation assay; assay type: cell-based; settings: 1q amp 3×, BRD4/BET inhibition
Procedure: as §1

KMS11 cell line = assay: Proliferation assay; assay type: cell-based; settings: Homo sapiens, KMS-11, 1q amp 6-8×, BRD4/BET inhibition
Procedure: as §1

MM1.S cell line = assay: Proliferation assay; assay type: cell-based; settings: Homo sapiens, 1q amp 3×, BRD4/BET inhibition
Procedure: as §1

U266 cell line = assay: Proliferation assay; assay type: cell-based; settings: Homo sapiens, U-266, 1q amp 3×, BRD4/BET inhibition, read-out: IC50
Procedure: as §1

[3] = system: CKS1B and E2F2 in H929 cell line; assay: Immunoblot of CKS1B and E2F2 after BET inhibitors; assay type: cell-based; settings: FIG. 10B
Description: (§6) Effects of BRD4 inhibitors on CKS1B and E2F2 and their target genes. CKS1B and E2F2 have been enlisted as super-enhancer (SE) associated genes in MM (Loven, J., et al., Cell, 2013, 153(2): p. 320-34). In order to pharmacologically target CKS1B and E2F2, the BET inhibitors JQ1 and Compound A were utilized in MDMS8-like and H929 cell lines. […] BET inhibitors also promoted a decrease in Cereblon substrates, Ikaros, Aiolos and c-Myc levels. Further, an increase in the levels of P27 was observed, which is a negative regulator of CKS1B signaling. Immunofluorescence staining was performed to analyze the localization and expression of CKS1B and E2F2 in response to JQ1 and confirmed the decrease in their nuclear expression in MDMS8-like cells (data not shown). Since BET inhibitors mediate their changes mainly at transcript levels, transcript levels of CKS1B and E2F2 were analyzed in response to BET inhibitors. In both MDMS8-like and H929 cell lines, BET inhibitors promoted a decrease in transcript levels of CKS1B and E2F2 (FIG. 10C, FIG. 10D, FIG. 10E, and FIG. 10F). […] To ascertain the SE mediated regulation of CKS1B and E2F2, CDK7 inhibitors targeting SE-associated complexes in MM cell lines were utilized.

[4] = system: CKS1B and E2F2 in MDMS8-like (DF15PR) cell line; assay: Immunoblot of CKS1B and E2F2 after BET inhibitors; assay type: cell-based; settings: FIG. 10A
Description: as §6

Mc-CAR cell line = assay: Proliferation assay; assay type: cell-based; settings: McCAR; 1q amp normal; BRD4/BET inhibition; read-out: IC50
Procedure: as §1, §4

H929 cell line = assay: Proliferation assay; assay type: cell-based; settings: Homo sapiens, NCI-H929, 1q amp 3-4×, BRD4/BET inhibition, read-out: IC50
Procedure: as §1, §4

several MM cell lines = assay: Proliferation of MM cell lines with CDK7 inhibitor; assay type: cell-based; settings: data not shown
Procedure: as §1
Effects of BRD4 inhibitors on CKS1B and E2F2 and their target genes. CKS1B and E2F2 have been enlisted as super-enhancer (SE) associated genes in MM (Loven, J., et al., Cell, 2013, 153(2): p. 320-34). In order to pharmacologically target CKS1B and E2F2, the BET inhibitors JQ1 and Compound A were utilized in MDMS8-like and H929 cell lines. […] BET inhibitors also promoted a decrease in Cereblon substrates, Ikaros, Aiolos and c-Myc levels. Further, an increase in the levels of P27 was observed, which is a negative regulator of CKS1B signaling. Immunofluorescence staining was performed to analyze the localization and expression of CKS1B and E2F2 in response to JQ1 and confirmed the decrease in their nuclear expression in MDMS8-like cells (data not shown). Since BET inhibitors mediate their changes mainly at transcript levels, transcript levels of CKS1B and E2F2 were analyzed in response to BET inhibitors. […]

[5] = system: acute myeloid leukemia (AML); settings: administered alone; cited from earlier work

What does the source list for `CC[C@@H]1C(=O)N(C)c2cnc(Nc3ccc(C(=O)NC4CCN(C)CC4)cc3OC)nc2N1C1CCCC1` [BI2536, (R)-4-((8-cyclopentyl-7-ethyl-5-methyl-6-oxo-5,6,7,8-tetrahydropteridin-2-yl)amino)-3-methoxy-N-(1-methylpiperidin-4-yl)benzamide]?
Activity in biallelic P53 cell line compared to P53-wild type cells (K12PE cell line; K12PE vs AMO1, FIG. 7B): higher activity; late apoptosis (AMO1-PR cells; vehicle 2.77%): 7.55%; early apoptosis (AMO1-PR cells; vehicle 3.82%): 23.2%; late apoptosis (AMO1 cells; vehicle 2.24%): 4.25%; early apoptosis (AMO1 cells; vehicle 2.69%): 10.9%

For `Nc1cccc2c1CN(C1CCC(=O)NC1=O)C2=O` (centres unmarked) [Compound 2, 3-(4-amino-1-oxo-1,3 dihydro-isoindol-2-yl)-piperidine-2,6-dione], which “Synergy with trametinib on proliferation” value [1] is on record?
The value was “strong synergy”.

What about the “Synergy of combination with JQ1 on proliferation” value (K12PE-PR cell line) of the same compound?
The value was “synergistically decreased proliferation”.

What about the “Synergy with trametinib on proliferation” value (AMO1 cell line) of the same compound?
Its value is “strong synergy”.

What about the “Synergy analysis (Calcusyn) of combination with JQ1 on proliferation” value (K12PE cell line) of the same compound?
Its value is “synergistic”.

Which IC50 (AMO1 control shRNA cells) does the source give for `N#Cc1ccc(N2CCN(Cc3ccc(COc4cccc5c4CN([C@H]4CCC(=O)NC4=O)C5=O)cc3)CC2)c(F)c1` [Compound 6, (S)-4-(4-(4-(((2-(2,6-dioxopiperidin-3-yl)-1-oxoisoindolin-4-yl)oxy)methyl)benzyl)piperazin-1-yl)-3-fluorobenzonitrile] here?
Its IC50 is 29.6 nM.

And the “Synergy (Calcusyn) with NEK2 inhibitors (JH295 and rac-CCT 250863) on proliferation” value ([1]; NEK2 inhibitor 0.016-10 μM)?
Its value is “strong synergy”.

What about the “Combination analysis (Calcusyn) with YM155 on proliferation” value ([1]; in combination with YM155) of the same compound?
Its value is “synergistic activity”.

And the “Synergy with trametinib on proliferation” value [1]?
The value was “strong synergy”.

And the “Synergy of combination with JQ1 on proliferation” value (K12PE-PR cell line)?
The value was “synergistically decreased proliferation”.

What about the “Synergy (Calcusyn) with NEK2 inhibitors (JH295 and rac-CCT 250863) on proliferation” value (AMO1 cell line; NEK2 inhibitor 0.016-10 μM) of the same compound?
The value was “strong synergy”.

What about the “Combination analysis (Calcusyn) with YM155 on proliferation” value (AMO1 cell line; in combination with YM155) of the same compound?
The value was “synergistic activity”.

And the “Synergy with trametinib on proliferation” value (AMO1 cell line)?
Its value is “strong synergy”.

What about the “Synergy analysis (Calcusyn) of combination with JQ1 on proliferation” value (K12PE cell line) of the same compound?
The value was “synergistic”.

And the IC50 ([2]; Homo sapiens, NEK2 knocked-down AMO1 cells)?
The IC50 was 2.89 nM.

What about the “Increase of activity by NEK2 knockdown in comparison to control shRNA cell line” value ([2]; IC50 control cells vs NEK2 knocked-down cells) of the same compound?
The value was 10 fold.

With `Cn1cc(-c2cc(S(C)(=O)=O)ccc2OCC2CC2)c2ccccc2c1=O` [Compound A, 4-[2-(cyclopropylmethoxy)-5-(methanesulfonyl)phenyl]-2-methylisoquinolin-1(2H)-one] as the compound, how does the IC50 (DF15/PR cell line) read?
The IC50 was 35.9 nM.

And the IC50 (KMS11 cell line)?
The IC50 was 40.3 nM.

What about the IC50 (MM1.S cell line) of the same compound?
The IC50 was 28.2 nM.

What about the IC50 (U266 cell line) of the same compound?
Its IC50 is 33.9 nM.

What about the “protein levels of CKS1B and E2F2” value [3] of the same compound?
Its value is “dose and time dependent decrease”.

What about the “protein levels of CKS1B and E2F2” value [4] of the same compound?
The value was “dose and time dependent decrease”.

And the IC50 (Mc-CAR cell line)?
Its IC50 is 93.4 nM.

And the IC50 (H929 cell line)?
Its IC50 is 54.1 nM.

What does the source list for `Cc1sc2c(c1C)C(c1ccc(Cl)cc1)=N[C@@H](CC(=O)OC(C)(C)C)c1nnc(C)n1-2` [JQ1, (S)-tert-butyl 2-(4-(4-chlorophenyl)-2,3,9-trimethyl-6H-thieno[3,2-f][1,2,4]triazolo[4,3-a][1,4]diazepin-6-yl)acetate]?
IC50 (DF15/PR cell line): 37.8 nM; IC50 (KMS11 cell line): 36.2 nM; IC50 (MM1.S cell line): 15.2 nM; IC50 (U266 cell line): 14.8 nM; protein levels of CKS1B and E2F2 [3]: dose and time dependent decrease; protein levels of CKS1B and E2F2 [4]: dose and time dependent decrease; IC50 (Mc-CAR cell line): 83.5 nM; IC50 (H929 cell line): 51.7 nM

Which proliferation (several MM cell lines) does the source give for `CN(C)C/C=C/C(=O)Nc1ccc(C(=O)Nc2cccc(Nc3ncc(Cl)c(-c4c[nH]c5ccccc45)n3)c2)cc1` [THZ1] here?
Its proliferation is “potent decrease in proliferation”.

For “CT-011: anti-PD-1 antibody, a humanized antibody”, which “response in treating acute myeloid leukemia (AML) at relapse” value [5] is on record?
Its value is “failed to show response”.
